Source: article PMC6745035, “Novel tetrahydroacridine derivatives with iodobenzoic moieties induce G0/G1 cell cycle arrest and apoptosis in A549 non-small lung cancer and HT-29 colorectal cancer cells” (Molecular and Cellular Biochemistry, 2019)

Legend:
Assay type in all cases: cell-based, human
[1] = system: HT-29 cells; assay: Apoptosis assay by annexin-V/PI double staining, HT-29; conditions: HT-29, 24 h, 25 µM; control 8.62%
Method: (§1) Compounds were added to the cells and further incubated for 24 h. After treatment, monolayer and supernatant cells were harvested, washed with PBS and centrifuged (monolayer at 1200 rpm for 10 min, supernatant at 3500 rpm for 10 min). Then, cells were re-suspended in binding buffer and stained with 2 µL of Annexin-V and […] of PI (ANNEXIN-V—FITC Apoptosis Detection Kit, Immunostep) in the dark for 10 min at room temperature. Cells were analysed by BD Accuri C6 Flow Cytometry (Becton–Dickinson). Etoposide (Calbiochem) was used as a reference drug. Experiments were done in triplicates.

[2] = system: EA.hy926 cells; assay: MTT cytotoxicity assay, EA.hy926; conditions: Homo sapiens, EA.hy 926, 24 h, MTT, 24 h incubation; read-out: IC50 µM ± SD against EA.hy926
From the text: The EA.hy926 cells (the human umbilical vein, somatic cell hybrid) (American Type Culture Collection) are immortalized human umbilical vein endothelial cells. They have morphological, phenotypic and functional characteristics of human endothelial cells, without the limited lifespan. This cell line has been considered as a good model for anticancer drug screening and was chosen to evaluate the endothelial cytotoxicity of novel compounds.
(§2) The MTT assay was used to evaluate cell metabolic activity. The test principle is based on the determination of cell viability by measuring the metabolic activity in mitochondria. Enzymatically active mitochondria reduce the water-soluble MTT (3-(4,5-dimethylthiazol-2-yl)-2,5 diphenyltetrazoliumbromide) to blue–violet insoluble formazan. The number of viability cells is proportional to the colour intensity determined by photometric measurements (an analytical wavelength 570 nm) after dissolving the formazan in Dimethylsulfoxide (DMSO) (Serva) and Sorensen’s glycine buffer. MTT (Sigma Aldrich) was dissolved in Phosphate Buffered Saline (PBS) (PAN-Biotech) at a concentration of 0.5 mg/mL. Sorensen’s glycine buffer is made of 0.1 M glycine and 0.1 M NaCl, at pH 10.5. Studied compounds were dissolved in DMSO in order to receive stock solutions.
(§3) For the assay, cells were seeded into 96-well plates at density 10^4 cells per well and cultured for 24 h at 37 °C and 5% CO2. Then medium was removed, and cells were exposed to the 100 µL of the compound solutions over a range of concentrations (final DMSO concentration was below 0.2%) or nothing but culture medium (blank control). Pure DMSO was used as a positive control. After 24 h of incubation with the compound solutions, medium was removed and 50 µL of the MTT solution was added to each well and incubated in the dark for additional 2 h at 37 °C. Then the MTT solution was carefully removed and 100 µL of DMSO was added. Plates were incubated for 10 min at room temperature. Finally, 5 µL of Sorensen Buffer was added to each well. Plate was swayed, and the absorbance was measured by using microplate reader (Synergy H1, BioTek, Winooski, VT, USA) at a wavelength of 570 nm. The cell viability was expressed as a percentage of the control values (blank). The experiments were done in triplicate.

[3] = system: A549 cells; assay: Cell cycle analysis (PI, flow cytometry), A549; conditions: A549, 24 h, 10 µM
Method: (§4) Then, compounds were added into the wells and cells were further incubated for 24 h. After incubation, monolayer and supernatant cells were harvested and washed in PBS. Then, cells were centrifuged (monolayer—1200 rpm for 10 min, supernatant 3500 rpm for 10 min) and fixed in cold 70% ethanol. Pellets were kept at 4 °C for at least 2 h. Prior to analysis, cells were centrifuged and re-suspended in RNAsi (type 1-A; Sigma Aldrich)—PBS working solution (200 µg/mL). Samples were incubated at 37 °C for 10 min. At the end, 3 µL of 2 mg/mL propidium iodide (PI) (Sigma Aldrich) solution was added to each sample. Samples were kept in the dark prior to analysis. Analysis was performed on BD Accuri C6 Flow Cytometry (Becton–Dickinson). Etoposide (Calbiochem) was used as a reference drug. Experiments were done in triplicates.

[4] = system: A549 cells; assay: MTT cytotoxicity assay, A549; conditions: Homo sapiens, A549, 24 h, MTT, 24 h incubation; read-out: IC50 µM ± SD against A549
From the text: A549 cell line (lung carcinoma from human) (European Collection of Cell Culture) and HT-29 cell line (colorectal adenocarcinoma from human) (American Type Culture Collection) were chosen to evaluate the cytotoxicity of novel compounds.
as §2, §3

[5] = system: HT-29 cells; assay: Cell cycle analysis (PI, flow cytometry), HT-29; conditions: HT-29, 24 h, 10 µM
Method: as §4

[6] = system: A549 cells; assay: Apoptosis assay by annexin-V/PI double staining, A549; conditions: A549, 24 h, 75 µM; control 7.80%
Method: as §1

With `COc1cc([C@@H]2c3cc4c(cc3[C@@H](O[C@@H]3O[C@@H]5CO[C@@H](C)O[C@H]5[C@H](O)[C@H]3O)[C@H]3COC(=O)[C@H]23)OCO4)cc(OC)c1O` [Etoposide, reference compound] the Total apoptotic cells [1] was 18.18%, the IC50 [2] was 155 ± 9.81 µM and the “Cells in G0/G1 phase” value [3] was 27.31%. For the same molecule, the “Cells in G2/M phase” value [3] was 66.02%, the “Cells in S phase” value [3] was 6.67% and the IC50 [4] was 451 ± 18.3 µM. For the same molecule, the “Cells in G2/M phase” value [5] was 73.84% and the Total apoptotic cells [6] was 43.46%.
